Experimental data taken from US12428369B2, “Crystal form of aromatic vinyl derivatives, and preparation method therefor and use thereof” (GUANGZHOU MAXINOVEL PHARMACEUTICALS CO., LTD., priority 2020, dated 2025).
Converted amounts (≈) assume the structure as drawn.

Tests used:
[1] = Dynamic vapor sorption (DVS) analysis; assay type: physicochemical; conditions: 25° C.; for hygroscopicity: assessment in words
Procedure: (§1) The hygroscopic characteristics of the sample were tested when the humidity changed from 0% RH to 95% RH, and the dehumidifying characteristics of the sample were tested when the humidity changed from 95% RH to 0% RH. The humidity change in each step size was 5% RH, the equilibrium standard was that the weight change rate within 10 min was less than 0.01%/min, and the longest equilibrium time was 2 hours.
as §1, with “5” for “10”

[2] = Solid-state stability: appearance and crystal form (XRPD); assay type: physicochemical; conditions: for physical stability: four storage conditions
Procedure: (§2) The samples of crystal forms A, B, and C were weighed and added to a 20 mL colorless transparent glass bottle, respectively, and the sample bottles were respectively placed under the corresponding influencing factors and acceleration conditions (the sample bottles under humidity conditions were sealed with tin foil and placed with holes, and the other samples were covered tightly and placed), taken out after being placed for 1 week and 2 weeks respectively, and the sample content and related substances under various conditions were detected by HPLC; according to the same method as above, samples were respectively weighed and placed under a corresponding influencing factor and accelerated condition, and were taken out after being placed for 2 weeks for observing the appearance and XRPD characterization of each sample, and the physical stability of each crystal form was examined, and the test methods are detailed in table 14 and table 15; at the same time, 2 samples of the crystal forms A, B, and C of the compound as shown in formula I were respectively weighed accurately into 20 mL colorless transparent glass bottles and covered tightly, placed in a −20° C. refrigerator, and taken out as a standard for HPLC analysis at 2 weeks, and the test results are detailed in table 16 and table 17.

[3] = Equilibrium solubility and dissolution rate in water, SGF, FaSSIF, FeSSIF; assay type: physicochemical; conditions: for Solubility: 37° C.; for solubility at 0.5 h / solubility at 2 h / solubility at 24 h: 37 °C, thermodynamic from solid
Procedure: To further study whether the equilibrium solubility and dissolution rate of crystal forms A, B and C are different in pure water and physiological related media in vivo, the equilibrium solubility and dissolution rate of […] crystal forms in water, simulated gastric fluid (SGF), fasted-state simulated intestinal fluid (FaSSIF) and fed state simulated intestinal fluid (FeSSIF) were tested respectively.

[4] = Solid-state stability: content and related substances by HPLC; assay type: physicochemical
Procedure: as §2

PD-1 and PD-L1 = PD-1 and PD-L1 (Homo sapiens, UniProt Q9NZQ7); conditions: as disclosed in patent CN109988144A; cited from earlier work
[5] = Acceleration (40° C./75% RH), 2 weeks
[6] = High humidity (92.5% RH), 2 weeks
[7] = High temperature (60° C.), 2 weeks
[8] = Illumination (4500 Lux), 2 weeks
[9] = high temperature, high humidity, illumination and acceleration, 2 weeks (conclusion)
[10] = Acceleration (40° C./75% RH), 1 week
[11] = High humidity (92.5% RH), 1 week
[12] = High temperature (60° C.), 1 week
[13] = illumination (4500 LuX), 1 week
[14] = illumination (4500 LuX), 2 weeks

PD-1 and PD-L1, sequence (Q9NZQ7 19-238 limits assumed): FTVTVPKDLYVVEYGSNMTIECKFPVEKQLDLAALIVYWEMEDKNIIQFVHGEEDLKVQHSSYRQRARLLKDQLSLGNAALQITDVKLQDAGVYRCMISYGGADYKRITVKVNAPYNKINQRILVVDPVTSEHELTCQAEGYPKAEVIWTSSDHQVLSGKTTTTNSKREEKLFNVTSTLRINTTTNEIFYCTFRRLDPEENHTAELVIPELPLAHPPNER

With `Cc1c(/C=C/c2cc(CN[C@@](C)(CO)C(=O)O)ccc2C(F)(F)F)cccc1-c1ccccc1` [Crystal form B] the hygroscopicity [1] was “hygroscopic”, the weight gain ([1]; from 0% RH to 95% RH) was 7.235% and the Appearance [2, 5] was “Off-white”. For the same compound, the “Crystal form (XRPD) after storage” value [2, 5] was “Crystal form B”, the Appearance ([2]; Control, −20° C., 2 weeks) was “Off-white” and the “Crystal form (XRPD) after storage” value ([2]; Control, −20° C., 2 weeks, listed as Crystal form B-Control) was “Crystal form B”. For the same compound, the Appearance [2, 6] was “Off-white”, the “Crystal form (XRPD) after storage” value [2, 6] was “Crystal form B” and the Appearance [2, 7] was “Off-white”. The “Crystal form (XRPD) after storage” value [2, 7] was “Mixed crystal form”, the “Crystal form (XRPD) after storage” value ([2]; High temperature (60° C.), 2 weeks, listed as crystal form B) was “converted into other crystal form” and the Appearance [2, 8] was “Off-white”. The “Crystal form (XRPD) after storage” value [2, 8] was “Crystal form B”, the physical stability ([2]; 2 weeks (conclusion)) was “poor” and the Appearance [2, 9] was “off-white”. For the same compound, the Solubility ([3]; FaSSIF (rows r12-r14), 0.5 hours, listed as B) was 13.3 µg/mL (≈ 28.3 µM), the Solubility ([3]; FaSSIF (rows r12-r14), 2 hours, listed as B) was 8.8 µg/mL (≈ 18.7 µM) and the Solubility ([3]; FaSSIF (rows r12-r14), 24 hours, listed as B) was 8.6 µg/mL (≈ 18.3 µM). The Solubility ([3]; FaSSIF as printed (second set, rows r15-r17), 0.5 hours, listed as B) was 176.4 µg/mL (≈ 376 µM), the Solubility ([3]; FaSSIF as printed (second set, rows r15-r17), 2 hours, listed as B) was 175.9 µg/mL (≈ 375 µM) and the Solubility ([3]; FaSSIF as printed (second set, rows r15-r17), 24 hours, listed as B) was 179.7 µg/mL (≈ 383 µM). The Solubility ([3]; SGF, 2 hours) was 0.1 µg/mL (≈ 0.213 µM), the Solubility ([3]; SGF, 24 hours) was 0.2 µg/mL (≈ 0.426 µM) and the Solubility ([3]; Water, 0.5 hours) was 2.5 µg/mL (≈ 5.32 µM). The Solubility ([3]; Water, 2 hours) was 7.5 µg/mL (≈ 16 µM), the Solubility ([3]; Water, 24 hours) was 1.2 µg/mL (≈ 2.56 µM) and the solubility at 0.5 h ([3]; simulated gastric fluid (SGF), simulated gastric fluid, SGF, 0.5 hours) was 0.5 µg/mL (≈ 1.06 µM). It also gave a Content [4, 10] of 103.22%, a Total related substances [4, 10] of 0.00% and a Content [4, 5] of 101.60%. It also gave a Total related substances [4, 5] of 0.00%, a Total related substances ([4]; Control, −20° C., 2 weeks) of 0.00% and a Content [4, 11] of 100.09%. It also gave a Total related substances [4, 11] of 0.00%, a Content [4, 6] of 100.83% and a Total related substances [4, 6] of 0.00%. For the same compound, the Content [4, 12] was 100.70%, the Total related substances [4, 12] was 0.00% and the Content [4, 7] was 100.15%. For the same compound, the Total related substances [4, 7] was 0.00%, the Content [4, 13] was 100.02% and the Total related substances [4, 13] was 0.39%. For the same compound, the Content [4, 14] was 99.69% and the Total related substances [4, 14] was 1.28%.

For `Cc1c(/C=C/c2cc(CN[C@@](C)(CO)C(=O)O)ccc2C(F)(F)F)cccc1-c1ccccc1` [Compound I], the “inhibitory effect on the combination of PD-1 and PD-L1” value (PD-1 and PD-L1) is listed as “strong inhibitory effect”.

In the case of `Cc1c(/C=C/c2cc(CN[C@@](C)(CO)C(=O)O)ccc2C(F)(F)F)cccc1-c1ccccc1` [Crystal form A], the hygroscopic weight gain ([1]; 80% RH) is reported as 0.310%, the hygroscopic weight gain ([1]; 95% RH) is reported as 0.409% and the hygroscopicity [1] is reported as “slightly hygroscopic”. For the same compound, the Appearance [2, 5] was “Off-white”, the “Crystal form (XRPD) after storage” value [2, 5] was “Crystal form A” and the Appearance ([2]; Control, −20° C., 2 weeks) was “Off-white”. The “Crystal form (XRPD) after storage” value ([2]; Control, −20° C., 2 weeks, listed as Crystal form A-Control) was “Crystal form A”, the Appearance [2, 6] was “Off-white” and the “Crystal form (XRPD) after storage” value [2, 6] was “Crystal form A”. The Appearance [2, 7] was “Off-white”, the “Crystal form (XRPD) after storage” value [2, 7] was “Crystal form A” and the Appearance [2, 8] was “Off-white”. The “Crystal form (XRPD) after storage” value [2, 8] was “Crystal form A”, the physical stability ([2]; 2 weeks (conclusion)) was “good” and the Appearance [2, 9] was “off-white”. The solubility at 0.5 h ([3]; FaSSIF as printed (second set of rows), fessif, FaSSIF, 0.5 hours) was 183 µg/mL (≈ 389 µM), the solubility at 2 h ([3]; FaSSIF as printed (second set of rows), fessif, FaSSIF, 2 hours) was 177 µg/mL (≈ 376 µM) and the solubility at 24 h ([3]; FaSSIF as printed (second set of rows), fessif, FaSSIF, 24 hours) was 170 µg/mL (≈ 363 µM). It also gave a Solubility ([3]; FaSSIF, 2 hours) of 2.0 µg/mL (≈ 4.26 µM), a Solubility ([3]; SGF, 0.5 hours) of 0.4 µg/mL (≈ 0.852 µM) and a Solubility ([3]; SGF, 2 hours) of 0.3 µg/mL (≈ 0.639 µM). The Solubility ([3]; SGF, 24 hours) was 0.1 µg/mL (≈ 0.213 µM), the Solubility ([3]; Water, 24 hours) was 6.1 µg/mL (≈ 13 µM) and the solubility at 0.5 h ([3]; fasted-state simulated intestinal fluid (FaSSIF), fassif, 0.5 hours) was 8.7 µg/mL (≈ 18.5 µM). The solubility at 24 h ([3]; fasted-state simulated intestinal fluid (FaSSIF), fassif, 24 hours) was 4.3 µg/mL (≈ 9.16 µM), the solubility at 0.5 h ([3]; water, 0.5 hours) was 1.5 µg/mL (≈ 3.19 µM) and the solubility at 2 h ([3]; water, 2 hours) was 6 µg/mL (≈ 12.8 µM). The Content [4, 10] was 104.34%, the Total related substances [4, 10] was 0.04% and the Content [4, 5] was 104.13%. For the same compound, the Total related substances [4, 5] was 0.03%, the Total related substances ([4]; Control, −20° C., 2 weeks) was 0.00% and the Content [4, 11] was 104.75%. The Total related substances [4, 11] was 0.10%, the Content [4, 6] was 104.25% and the Total related substances [4, 6] was 0.12%. For the same compound, the Content [4, 12] was 100.69%, the Total related substances [4, 12] was 0.02% and the Content [4, 7] was 104.03%. It also gave a Total related substances [4, 7] of 0.03%, a Content [4, 13] of 96.10% and a Total related substances [4, 13] of 3.94%. For the same compound, the Content [4, 14] was 88.50% and the Total related substances [4, 14] was 11.18%.
